Reference: patent US10105437B2, “Epitopes related to coeliac disease” (BTG International Limited, priority 2004, dated 2018)

Key:
[1] = tested on: PBMC from HLA-DQ2+ coeliac subjects; experiment: Interferon gamma ELISPOT, hordein 20mer first round library after barley challenge; type: cell-based, human; conditions: 17 subjects
Method: Peptides were initially dissolved in aqueous acetonitrile (50%). Peptides in aqueous acetonitrile were transferred to sterile 96-well plates and diluted in sterile PBS with 1 mM calcium (250 mcg/ml) and then incubated with tTG (25 mcg/ml) (Sigma T5398) for 6 h 37° C. and then stored frozen (−20° C.) until use.
(§1) IFNγ ELISpot assays (Mabtech, Sweden) were performed in 96-well plates (MAIP S-45, Millipore) in which each well contained 25 mcl of peptide solution and 100 mcl of PBMC (2-8×10^5/well) in RPMI containing 10% heat inactivated human AB serum. After development and drying, IFNγ ELISpot plates were assessed using the MAIP automated ELISpot plate counter. Data was then analysed according to a novel algorithm (Expectation Maximization: EM) to define and quantify interferon-gamma responses to 9mer sequences contained within the peptide library (see FIG. 3 and below). 9mer peptides were then rationalised according to an algorithm that assumes redundancy in T-cell recognition, the “IterativeCluster” algorithm (see FIG. 4 and below), by allowing groups of amino acids with similar chemical properties at any one position in the 9mer, or for glutamate to replace glutamine at any position (assuming deamidation may have occurred).
Secalin and hordein 20mer first round peptide libraries were assessed 3 days after completing rye (bread, 100 g/d for 3 days) or barley (boiled, 100 g/d for 3 days) challenge (“day 6” PBMC interferon gamma ELISPOT responses). Although iterative analysis using 2nd and 3rd round peptide libraries to define epitopes has not yet been performed, the 20mers pre-treated with tTG found to induce “potent” responses shared substantial structural similarity to the bioactive peptides identified after wheat challenge. […] The dominant (>70% maximal response) 20mer after rye challenge was usually […] (SEQ ID NO: 1769) (8/14 subjects), or occasionally […] (SEQ ID NO: 1770) (4/14), […] (SEQ ID NO: 1771) (1/14), […] (SEQ ID NO: 1772) (1/14) and/or […] (SEQ ID NO: 1773) (1/14). Additional peptides noted for greater than 40% maximal response in at least 1 subject include:
Typically, the dominant peptides after barley challenge included one of six peptide motifs, or were one of eight other individual 20mers “dominant” in only one of 17 subjects after barley challenge. The six motifs identified:
The barley hordein peptides showing at least 40% maximal peptide response in at least one subject include the following, wherein an asterisk indicates the eight individual peptides showing maximal response in a single individual: […]

[2] = tested on: PBMC from HLA-DQ2+ coeliac subjects; experiment: Interferon gamma ELISPOT, second round wheat gliadin and glutenin 16mer library; type: cell-based, human; conditions: 16mers pre-treated with transglutaminase, 18 or 28 subjects; for subjects with >70% of maximal peptide-specific response: normalized to individual's maximal response
Excerpt: 12mer peptides were then identified in which each potential deamidation site could be in position 4, 6 or 7 in the 9mer located within HLA-DQ2 binding groove (HLA-DQ2 anchors at these positions show a preference for glutamate). Candidate 12mer core epitope sequences were then flanked with glycine followed by the N-terminal residue present in the parent gliadin polypeptide and at the C-terminal by the C-terminal residue present in the parent gliadin polypeptide followed by glycine (i.e. GXXXXXXXQXXXXXXG (SEQ ID NO: 1936)). […]
as §1
All 2nd round 16mer peptides were assessed in at least 18 subjects. […] All 16mers identified for the second round Oxford library also fulfilled the selection criteria for the Melbourne second round library.
The second round peptide library data was analysed according to the “dominance” of peptide responses in the interferon gamma ELISPOT in individual subjects i.e. the percent response of an individual's PBMC to a specific peptide normalized against that individual's maximal peptide-induced response. Sequences of peptides that stimulated at least 40% of the maximal peptide-specific response in at least one subject are shown in Table 1 below. The dataset supports the consistency and “dominance” of peptides conforming to the sequences identified using the first round 20mer peptide library using the Expectation Maximization (EM) algorithm described above.

| Substance | number of subjects with > 70% maximal response [1] | subjects with at least 40% maximal peptide response [1] | subjects with 10-40% of maximal peptide-specific response [2] | subjects with 40-70% of maximal peptide-specific response [2] | subjects with <10% of maximal peptide-specific response [2] | subjects with >70% of maximal peptide-specific response [2] |
| --- | --- | --- | --- | --- | --- | --- |
| FPLQPQQPFPQQPQQPFPQQ (Description of Artificial Sequence: Synthetic gluten peptide) [barley hordein 20mer] | 0 | 1/17 |  |  |  |  |
| FPQPQEPFPQQPQQPFPLQP (Description of Artificial Sequence: Synthetic gluten peptide) [barley hordein 20mer] | 0 | 1/17 |  |  |  |  |
| FPQYQIPTPLQPQQPFPQQP (Description of Artificial Sequence: Synthetic gluten peptide) [barley hordein 20mer] | 1 | 2/17 |  |  |  |  |
| FQQPQQSYPVQPQQPFPQPQ (Description of Artificial Sequence: Synthetic gluten peptide) [barley hordein 20mer] | 1 | 3/17 |  |  |  |  |
| G-QVSFQQPQQQYPSP-G: wheat 16mer, second round library |  |  | 4/28 | 2/28 | 22/28 | Nil |
| GQGQSGYYPTSPQQSG (QQGYYPTSPQQSGQGQ; Description of Artificial Sequence: Synthetic gluten peptide) [wheat 16mer, second round library] |  |  | 2/18 | Nil | 15/18 | 1/18 |
| GQVVNNHGQTVFNDIG [wheat 16mer, second round library] |  |  | 4/18 | 1/18 |  | Nil |
| IIMQQEQQEQRQGVQI [wheat 16mer, second round library] |  |  | 8/28 | Nil | 19/28 | 1/28 |
| LAAQLPAMCRLEGGGGLLAS (Description of Artificial Sequence: Synthetic gluten peptide) [barley hordein 20mer] | 1 | 1/17 |  |  |  |  |
| LALQTLPAMCNVYIPP [wheat 16mer, second round library] |  |  | Nil | Nil | 17/18 | Nil |
| LEAVTSIALRTLPTMC [wheat 16mer, second round library] |  |  | 1/18 | 1/18 |  | Nil |
| LQQQCSPVAMPQRLAR [wheat 16mer, second round library] |  |  | 11/28 | 1/28 | 15/28 | 1/28 |
| LQTLPSMCNVYIPPYC [wheat 16mer, second round library] |  |  | Nil | Nil | 17/18 | Nil |
| PFPQPPQQKYPEQPQQPFPW (Description of Artificial Sequence: Synthetic gluten peptide) [barley hordein 20mer] | 1 | 1/17 |  |  |  |  |
| PGQGQSGYYPTSPQQS [wheat 16mer, second round library] |  |  | Nil | 1/18 | 16/18 | 1/18 |
| QGQPGYYPTSPQQIGQ [wheat 16mer, second round library] |  |  | 1/18 | 1/18 | 15/18 | 1/18 |
| QGQQGYYPISPQQSGQ [wheat 16mer, second round library] |  |  | 1/18 | 1/18 | 15/18 | 1/18 |
| QGQQGYYPTSPQQPPQ [wheat 16mer, second round library] |  |  | Nil | 1/18 | Nil | Nil |
| QQGYYPISPQQLGQGQ [wheat 16mer, second round library] |  |  | Nil | 1/18 | Nil | Nil |
| QQGYYPTSPQQSGQGQ (QGQQGYYPTSPQQPPQ; Description of Artificial Sequence: Synthetic gluten peptide) [wheat 16mer, second round library] |  |  | Nil | 1/18 | 17/18 | Nil |
| VAHAIIMHQQQQQQQE [wheat 16mer, second round library] |  |  | 2/28 | 1/28 | 25/28 | Nil |
| VPLYRTTTSVPFGVGT [wheat 16mer, second round library] |  |  | Nil | Nil | 17/18 | Nil |
| YVPPDCSTINVPYANI [wheat 16mer, second round library] |  |  | 1/18 | 1/18 | 15/18 | 1/18 |
